These results are taken from patent publication US20190060298A1, “NEW DRUG FOR THE TREATMENT AND/OR PREVENTION OF DEPRESSIVE DISORDERS” (SORBONNE UNIVERSITE, priority 2013, published 2019).

The subject of assay [1] is Sprague-Dawley rats. Put plainly: Forced swimming test after sensitization paradigm. Type of assay: in vivo. Particulars: V animals; TEMPOL 288 μmol/kg/day 15 days from D11; after three weeks of CMS applied at D31. As for the experimental part:
(§1) Sprague-Dawley rats were subjected to chronic social defeat (CSD) and then, four weeks later, to three weeks of chronic mild stress (SSP rats). The chronic mild stress protocol (CMS) was performed as previously described (see Blugeot et al., 2011). The control rats were control intruders (not subjected to CSD) not exposed to the three weeks of CMS (C rats).
(§2) The CMS protocol is derived from that described by Willner et al. (1992). Briefly, various mild stresses were applied every day, over a period of three weeks. Briefly, from Monday to Friday, every morning, animals were placed in a small cage (10×16×15 cm) for 1 hour. In the afternoon, they were shaken for 10 min (Monday and Thursday), placed in a small cage containing water (2 cm high, Tuesday) or placed in another cage for 4 hours (Wednesday and Friday). Every night, the cage was inclined (45°, Tuesday and Thursday) or contained wet bedding (Wednesday and Friday). On Saturday and Sunday, the rats were subjected to a reversed dark/light cycle for 30 min, every three hours.
Four days after the end of SSP paradigm (D52), FST experiments were performed between 08:00 and 11:30. Experiments were performed as described by Becker et al. (2008, Mol. Psychiatry 13, 1079) and Blugeot et al. (2011). Immobility time was measured with a stopwatch. […] A trained experimenter blind to the treatment observed the animals and measured immobility time. […]

A further assay concerns Nrf2-null mice. Put plainly: Depression-like phenotype of Nrf2-null mice after CMS. Type of assay: in vivo. As to conditions: Nrf2-null mice after three weeks of CMS; Tempol 288 μmol/kg/day from one week before CMS to end. On the procedure:
Nrf2-null mice were backcrossed onto the C57BL/6 J background for seven generations using alternating male and female stock mice from the CNRS TAAM UPS44 (Orléans). The resulting wild-type (Nrf2+/+) and Nrf2−/− mice were genotyped and only male mice at 6 weeks old at the beginning of the experiments were used. The level of oxidative stress in mice was first evaluated through the measure of lipid peroxidation. Lipid peroxidation was assessed by measuring TBARS formation with a commercial assay kit (Cayman Chemical, Ann Arbor, Mich., USA), in accordance with the manufacturer's instructions. TBARS concentration was calculated from an MDA standard curve and normalized.
To examine the depression-like phenotype of Nrf2-null mice, the helplessness behaviour, anhedonia and HPA hyperactivity (corticosterone, and adrenal gland weight) were assessed before and after a chronic mild stress (CMS) protocol. The neuroanatomical morphology of hippocampus in mice was estimated using Golgi Staining procedure. Tempol (4-hydroxy-2,2,6,6-tetramethylpiperidine 1-oxyl, Sigma-Aldrich, St Louis, Mo., USA), which was administered at a dose of 288 μmol/kg/day (Wilcox, 2010), was dissolved in distilled water and delivered via ALZET osmotic mini-pumps (1004, Charles River Laboratories, France). […]

Assay [2] concerns Sprague-Dawley rats. Put plainly: Sweet water consumption after sensitization paradigm. Particulars: V animals; TEMPOL 288 μmol/kg/day 15 days from D11; after three weeks of CMS applied at D31. The format is in vivo. On the procedure:
as §1, §2
Experiments were performed as described by Becker et al. (2008) and Blugeot et al. (2011). Sucrose and water intakes were measured daily at 9:00 am. Weekly sweet water consumption was expressed as a percentage of control values (measured one week before the beginning of the conditioning sessions). Sweet water consumption indicated a preference for sucrose. […]

The test system of a further assay is aconitase. Put plainly: Aconitase activity in hippocampus. Type of assay: in vivo, Sprague-Dawley rats. Particulars: V rats; 288 μmol/kg/day, 15 days from D11; D31. On the procedure:
Rats were killed by decapitation and their right hippocampi were rapidly removed and homogenized in ice-cold buffer (5 mM Tris-HCl pH 7.5, 210 mM mannitol, 70 mM sucrose, 1 mM EDTA and 2.3 mM sodium citrate). Homogenates were rapidly centrifuged (14,000×g, 10 min, 4° C.) and the pellets were immediately frozen in liquid nitrogen and stored at −80° C. Aconitase activity was measured spectrophotometrically (Gardner et al., 1994), by monitoring the linear absorbance change at 340 nm, at 25° C., in a 1.0-ml reaction mixture containing 50 mM Tris HCl (pH 7.5), 0.05% BSA, 2 mM sodium citrate, 2 mM MnCl2, 0.4 mM NADP+, 0.85 units of isocitrate dehydrogenase, and 10-20 μg of protein extract. The absorbance change associated with aconitase activity was linear with respect to time and protein concentration. One milliunit of aconitase activity was defined as the amount of enzyme catalyzing the formation of 1 nmol of D-isocitrate per min and per mg.
Tempol (4-hydroxy-2,2,6,6-tetramethylpiperidine 1-oxyl), which was administered at a dose of 288 μmol/kg/day [Sigma-Aldrich, St Louis, Mo., USA]), was dissolved in distilled water and delivered via ALZET osmotic mini-pumps (2002, Charles River Laboratories, France). […]

As for `CC1(C)CC(O)CC(C)(C)N1[O]` [TEMPOL, 4-hydroxy-2,2,6,6-tetramethylpiperidin-1-oxyl], in the assay with Sprague-Dawley rats [1], the “immobility time in the forced swimming test” value was “prevented the increase in immobility time”. In addition, the “depression-like phenotype (helplessness behaviour, anhedonia, HPA hyperactivity)” value with Nrf2-null mice was “prevented”. Besides, the sweet water consumption entry in the assay on Sprague-Dawley rats [2] was “prevented”. Moreover, the aconitase activity entry in the assay on aconitase was “lack of aconitase activity dysfunction”.
